What was measured:
OV-MZ-6 cells = assay: Cell adhesion in the presence of ligand, OV-MZ-6 cells; type: cell-based; conditions: 1 μM, 48 h
Procedure: (§1) Figure 10 (A) Effect of integrin ligands on cancer cell migration. […] Microscopical measurements of wound gaps were taken directly after setting the wound scratch and then after 9, 24, 48, and 72 h, respectively. Wound scratch assays were repeated at least three times. The extent of wound gap closure [%]/cell coverage was calculated by a python script utilizing Canny’s Edge Detection algorithm as described under Materials and summarized in the corresponding histograms (see also Scheme S5 in the Supporting Information). (B) Adhesion of M21, OV-MZ-6, and HN cells in the presence of the respective integrin targeting ligand at low (1 nM) and high (1 μM) concentrations. […] Depicted are typical microscopical images of the respective cell monolayers.

M21 cells = assay: Cell adhesion in the presence of ligand, M21 cells; type: cell-based; conditions: 1 μM
Procedure: as §1

[1] = test system: FAK, p-FAK, p44/42erk-1/2 in αvβ6+ HN cells; assay: Western blot of FAK and p44/42erk-1/2 expression and activation, HN cells; type: cell-based
Procedure: Since agonistic ligand performance requires integrin activation and signaling, by Western blot analysis, we studied whether the different ligands alter the expression levels and activation states of FAK and p44/42^(erk-1/2). For this, the respective target integrin-expressing tumor cell types were incubated with the corresponding subtype-selective ligand at a concentration of 1 μM for 24 h (Figure 8). […] Signal intensities of FAK and p44/42^(erk-1/2) expression and activation (p-FAK and p-p44/42^(erk-1/2)) on Western blots were evaluated by densitometry. Data are depicted as GAPDH-normalized fluorescence signal intensities as n-fold, by setting values obtained for the respective untreated cells to “1”. […] MAPK p44/42^(erk-1/2) expression was approximately 2.2-fold augmented, p44/42^(erk-1/2) by approximately 2.5-fold. It also raised activation of p-FAK and p-p44/42^(erk-1/2) by approximately 2.2-fold and 3.1-fold, respectively, in α5β1+ OV-MZ-6 cells. […] Additionally, it raised FAK (approximately 1.7-fold) and p-p44/42^(erk-1/2) (approximately 2.4-fold) in α5β1+ OV-MZ-6 cells.
Figure 8 Effects of ligands on cellular expression and activation of integrin-related signaling molecules FAK and p44/42^(erk-1/2). […] Signal intensities for FAK and p-FAK, respectively, were evaluated by use of the Bio-Rad Imager Gel Doc XR+ and a ChemiDoc XRS+ Systems and the software Image Lab. Shown are typical representative Western blot images and the corresponding histograms depicting GAPDH-normalized signal intensities as n-fold by setting the values obtained for untreated cells to “1” (drawn as black line). For each cell line, cutouts of identical gels are depicted.
In order to capture early and transient changes in signaling activation following ligand treatment, we next reduced the observation periods to 5, 30, or 60 min and assessed FAK expression and activation. […] Depicted are typical Western blot images and the corresponding densitometrical evaluations of GAPDH-normalized signal intensities as n-fold, by setting that of the respective untreated cell type to “1” (Figure 9). […]

HN cells (αvβ6+) = assay: Time-dependent cellular uptake of Cy5.5-labeled ligands, HN cells; type: cell-based; conditions: Cy5.5-labeled ligands, 1 μM
Description: For intracellular drug delivery, integrin ligands designed as drug-conjugated vehicles have to be easily and selectively internalized by tumor cells (over)expressing the respective targeted integrin subtype. […] It should be noted here that HN, OV-MZ-6, and RKO cells also express low αvβ3 expression levels.
Figure 7 Cellular uptake of Cy5.5-labeled integrin ligands. […] Nuclei were costained with Hoechst 33342 (blue signal) and cell membranes with CellMask Green (green signal). Merge of stains (yellow signal) indicated colocalization of ligands at the cell membrane. Scale bar: 50 μm.
Microchamber cell culture slides were coated with fibronectin (2 μg/mL), followed by cell seeding at a density of 50,000 cells/well. After 24 h of cultivation, cells were treated with integrin ligands L1-Cy5.5 to L5-Cy5.5 (1 μM in 0.01% (w/v) CaCl2 and 0.1% (w/v) BSA in PBS; 250 μL/well) for 3, 30, 60, or 300 min at 37 °C. The cells were washed in PBS/0.01% (w/v) CaCl2 (6 × 800 μL) and the fluorescence signal intensity recorded using the LSM 700 microscope (Zeiss, Jena, Germany). CellMask Green Plasma Membrane Stain was used to stain the cell membrane; nuclei were stained with Hoechst 33342.

human αvβ6-integrin = molecular target: T1, human αvβ6-integrin (Homo sapiens, UniProt P06756+P18564); conditions: previously published values; cited from earlier work
T1 construct: purchased R&D 3817-AV-050

HN cells = assay: Cell adhesion in the presence of ligand, HN cells; type: cell-based; conditions: both concentrations (1 nM, 1 μM), 48 h
Procedure: as §1

human αvβ3-integrin = molecular target: T2, human αvβ3-integrin (Homo sapiens, UniProt P05106+P06756); conditions: previously published values; cited from earlier work
T2 construct: purchased R&D 3050-AV-050
T2 sequence (P06756 31-992 limits assumed): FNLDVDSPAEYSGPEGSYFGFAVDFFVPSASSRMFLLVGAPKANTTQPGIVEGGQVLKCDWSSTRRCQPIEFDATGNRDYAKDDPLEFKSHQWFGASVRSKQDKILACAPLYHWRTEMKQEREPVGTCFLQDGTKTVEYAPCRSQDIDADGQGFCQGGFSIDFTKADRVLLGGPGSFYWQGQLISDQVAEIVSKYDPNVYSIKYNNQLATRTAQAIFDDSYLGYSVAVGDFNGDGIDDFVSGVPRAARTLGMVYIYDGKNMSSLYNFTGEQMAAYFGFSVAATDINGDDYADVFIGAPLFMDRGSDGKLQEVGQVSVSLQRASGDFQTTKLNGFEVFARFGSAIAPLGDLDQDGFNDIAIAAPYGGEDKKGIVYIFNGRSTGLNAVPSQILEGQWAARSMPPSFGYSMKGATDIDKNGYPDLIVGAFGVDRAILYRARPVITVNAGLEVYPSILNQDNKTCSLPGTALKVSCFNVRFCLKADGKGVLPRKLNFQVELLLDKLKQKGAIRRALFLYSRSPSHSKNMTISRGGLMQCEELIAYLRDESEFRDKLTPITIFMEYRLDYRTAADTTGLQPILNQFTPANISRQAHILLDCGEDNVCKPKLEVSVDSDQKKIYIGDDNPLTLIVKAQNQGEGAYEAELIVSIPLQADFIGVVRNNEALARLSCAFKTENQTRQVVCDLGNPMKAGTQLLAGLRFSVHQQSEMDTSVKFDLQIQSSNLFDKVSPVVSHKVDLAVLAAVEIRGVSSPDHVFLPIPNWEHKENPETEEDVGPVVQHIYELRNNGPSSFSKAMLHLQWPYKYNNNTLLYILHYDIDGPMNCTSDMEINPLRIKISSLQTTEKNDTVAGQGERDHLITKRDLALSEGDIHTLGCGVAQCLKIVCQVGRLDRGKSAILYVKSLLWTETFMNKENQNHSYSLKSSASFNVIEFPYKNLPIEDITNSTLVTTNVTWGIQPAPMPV
T2 sequence (P05106 27-718 limits assumed): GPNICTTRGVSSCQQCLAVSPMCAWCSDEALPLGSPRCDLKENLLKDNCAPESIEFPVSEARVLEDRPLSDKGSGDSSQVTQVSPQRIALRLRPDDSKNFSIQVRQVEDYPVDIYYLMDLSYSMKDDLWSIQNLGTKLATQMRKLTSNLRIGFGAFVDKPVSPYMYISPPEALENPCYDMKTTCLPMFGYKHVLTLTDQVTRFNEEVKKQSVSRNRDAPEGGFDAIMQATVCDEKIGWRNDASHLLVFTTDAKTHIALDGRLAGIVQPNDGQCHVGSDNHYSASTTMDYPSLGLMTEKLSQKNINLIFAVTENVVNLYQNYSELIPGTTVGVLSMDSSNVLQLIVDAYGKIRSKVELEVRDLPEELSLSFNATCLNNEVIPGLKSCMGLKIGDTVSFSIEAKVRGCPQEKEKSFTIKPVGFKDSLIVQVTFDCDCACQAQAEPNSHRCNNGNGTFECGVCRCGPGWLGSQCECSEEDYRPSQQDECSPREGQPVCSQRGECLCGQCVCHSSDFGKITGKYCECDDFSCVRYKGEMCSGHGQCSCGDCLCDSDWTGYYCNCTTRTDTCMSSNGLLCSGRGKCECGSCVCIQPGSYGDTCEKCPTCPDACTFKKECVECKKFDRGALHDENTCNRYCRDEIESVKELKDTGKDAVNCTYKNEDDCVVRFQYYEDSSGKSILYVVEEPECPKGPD

T1 sequence (P06756 31-992 limits assumed): as the sequence (P06756 31-992 limits assumed) above
T1 sequence (P18564 22-707 limits assumed): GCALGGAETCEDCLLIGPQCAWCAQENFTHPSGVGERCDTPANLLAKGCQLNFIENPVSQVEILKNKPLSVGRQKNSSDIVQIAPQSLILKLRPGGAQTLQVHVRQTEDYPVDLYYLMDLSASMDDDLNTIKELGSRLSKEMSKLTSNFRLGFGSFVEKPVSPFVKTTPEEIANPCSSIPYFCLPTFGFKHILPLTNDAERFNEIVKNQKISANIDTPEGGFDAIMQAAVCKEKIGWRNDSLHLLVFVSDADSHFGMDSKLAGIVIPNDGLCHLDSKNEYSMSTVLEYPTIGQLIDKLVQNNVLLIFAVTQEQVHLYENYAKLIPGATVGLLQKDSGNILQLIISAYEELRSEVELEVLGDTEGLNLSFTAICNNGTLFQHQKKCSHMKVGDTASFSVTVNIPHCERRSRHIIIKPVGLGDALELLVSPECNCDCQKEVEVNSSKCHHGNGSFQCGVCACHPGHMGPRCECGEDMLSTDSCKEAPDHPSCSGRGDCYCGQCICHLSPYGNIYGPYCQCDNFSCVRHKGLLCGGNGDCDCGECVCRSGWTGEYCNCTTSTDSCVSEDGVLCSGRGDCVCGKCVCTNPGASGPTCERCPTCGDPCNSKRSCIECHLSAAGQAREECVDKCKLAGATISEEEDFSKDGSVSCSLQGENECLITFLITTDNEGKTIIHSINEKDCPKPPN

Q: With `C#CCCC(=O)NCCCOc1cc(C)c(C(=O)N[C@@H](CNC(=O)CNC(=O)c2cccc(NC(=N)N)c2)C(=O)O)c(C)c1` [L5, (S)-2-(2,6-Dimethyl-4-(3-(pent-4-ynamido)propoxy)benzamido)-3-(2-(3-guanidinobenzamido)acetamido)propanoic Acid] as the molecule, how does the “Effect on cell adhesion / attachment” value (OV-MZ-6 cells) read?
A: Its value is “performed as inhibitors of cell attachment”.

Q: With `C#CCCC(=O)NCCCOc1ccc(C(=O)N[C@H](CC(=O)O)Cc2ccc(OCCCNc3cc(OC)ccn3)cc2)cc1` [L1, (S)-4-(4-(3-((4-Methoxypyridin-2-yl)amino)propoxy)phenyl)-3-(4-(3-(pent-4-ynamido)propoxy)benzamido)butanoic Acid] as the molecule, how does the “Effect on cell adhesion / attachment” value (M21 cells) read?
A: Its value is “performed as inhibitors of cell attachment”.

Q: What does the source list for c(FRGDLAFp(NMe)K) [L3]?
A: Modulation of signaling molecules (FAK, p44/42erk-1/2) ([1]; 1 μM, 24 h, in either cell type): not effective in modulating signaling molecules; p-FAK, elevated levels within 30 min ([1]; HN cells, 1 nM): approximately five; FAK expression versus untreated cells ([1]; HN cells, both concentrations (1 nM, 1 μM), within 60 min): slight increase; Cellular uptake, comparison of αvβ6 ligands (HN cells (αvβ6+)): better cellular uptake than L4; IC50 (human αvβ6-integrin): 0.28 ± 0.019 nM; Adhesive phenotype (HN cells): not changed; IC50 (human αvβ3-integrin): > 1000 nM

— PMC11874007, “Switching Roles—Exploring Concentration-Dependent Agonistic versus Antagonistic Behavior of Integrin Ligands” (Journal of Medicinal Chemistry, 2025)
